Measured values as given in US20200188426A1, “WOUND MANAGEMENT METHOD” (priority 2018, published 2020).

System: microbes (bacteria, fungi, and viruses)
Test: testing of methylene chloride as microbicidal agent
Type: cell-based
Conditions: in liquid form, prior to evaporation

SMILES: ClCCl [methylene chloride]
- microbicidal activity on contact: kill microbes (bacteria, fungi, and viruses) on contact
